Test results published in ChEMBL document CHEMBL1137391, “Synthesis and evaluation of indenoisoquinoline topoisomerase I inhibitors substituted with nitrogen heterocycles” (2006).

Key:
Type in all cases: functional
HOP-62 = assay: Cytotoxicity against human HOP62 cell line
HCT-116 = assay: Cytotoxicity against human HCT116 cell line
SF-539 = assay: Cytotoxicity against human SF539 cell line
UACC-62 = assay: Cytotoxicity against human UACC62 cell line
OVCAR-3 = assay: Cytotoxicity against human OVCAR-3 cell line
SN12C = assay: Cytotoxicity against human SN12C cell line
DU-145 = assay: Cytotoxicity against human DU145 cell line
MDA-MB-435 = assay: Cytotoxicity against human MDA-MB-435 cell line

## O=C1c2ccccc2-c2c1c1ccccc1c(=O)n2CCCn1ccnc1
HOP-62
  GI50: 2.69 µM
HCT-116
  GI50: 1.41 µM
SF-539
  GI50: 2.34 µM
UACC-62
  GI50: 0.79 µM
OVCAR-3
  GI50: 1.66 µM
SN12C
  GI50: 1.66 µM
DU-145
  GI50: 1.41 µM

## COc1cc2c3c(n(CCCN4CCSCC4)c(=O)c2cc1OC)-c1cc2c(cc1C3=O)OCO2
HOP-62
  GI50: 26.3 µM
HCT-116
  GI50: 72.4 µM
SF-539
  GI50: 18.2 µM
UACC-62
  GI50: 37.2 µM
OVCAR-3
  GI50: 34.7 µM
DU-145
  GI50: > 100 µM
MDA-MB-435
  GI50: > 100 µM

## COc1cc2c3c(n(CCCNCCN4CCOCC4)c(=O)c2cc1OC)-c1cc2c(cc1C3=O)OCO2
HOP-62
  GI50: < 0.005 µM
HCT-116
  GI50: < 0.005 µM
SF-539
  GI50: 0.55 µM
UACC-62
  GI50: 0.162 µM
OVCAR-3
  GI50: 0.525 µM
SN12C
  GI50: 1.48 µM
DU-145
  GI50: 0.603 µM
MDA-MB-435
  GI50: 1.95 µM

## COc1cc2c3c(n(CCCN4CCN(CCO)CC4)c(=O)c2cc1OC)-c1cc2c(cc1C3=O)OCO2
HOP-62
  GI50: 9.77 µM
HCT-116
  GI50: 2.34 µM
SF-539
  GI50: 1.44 µM
UACC-62
  GI50: 1.23 µM
OVCAR-3
  GI50: 15.1 µM
SN12C
  GI50: > 100 µM
DU-145
  GI50: 0.275 µM
MDA-MB-435
  GI50: > 100 µM

## COc1cc2c3c(n(CCCN4CCCNCC4)c(=O)c2cc1OC)-c1cc2c(cc1C3=O)OCO2
HOP-62
  GI50: < 0.005 µM
HCT-116
  GI50: 0.214 µM
SF-539
  GI50: 0.145 µM
UACC-62
  GI50: 0.457 µM
OVCAR-3
  GI50: 5.01 µM
SN12C
  GI50: 0.145 µM
DU-145
  GI50: 0.081 µM
MDA-MB-435
  GI50: 2.63 µM

## COc1cc2c3c(n(CCCNC4=NCCS4)c(=O)c2cc1OC)-c1cc2c(cc1C3=O)OCO2
HOP-62
  GI50: < 0.01 µM
HCT-116
  GI50: < 0.01 µM
SF-539
  GI50: < 0.01 µM
UACC-62
  GI50: 0.014 µM
OVCAR-3
  GI50: 0.041 µM
SN12C
  GI50: < 0.01 µM
DU-145
  GI50: < 0.01 µM
MDA-MB-435
  GI50: < 0.01 µM

## COc1cc2c3c(n(CCCN4CCN(C)CC4)c(=O)c2cc1OC)-c1cc2c(cc1C3=O)OCO2
HOP-62
  GI50: 18.2 µM
HCT-116
  GI50: 1.48 µM
SF-539
  GI50: 17.8 µM
UACC-62
  GI50: 15.1 µM
OVCAR-3
  GI50: 15.1 µM
SN12C
  GI50: 11.5 µM
DU-145
  GI50: 10.7 µM
MDA-MB-435
  GI50: > 100 µM

## COc1cc2c3c(n(CCCn4ccnc4)c(=O)c2cc1OC)-c1cc2c(cc1C3=O)OCO2
HOP-62
  GI50: < 0.01 µM
HCT-116
  GI50: < 0.01 µM
SF-539
  GI50: 0.037 µM
UACC-62
  GI50: < 0.01 µM
OVCAR-3
  GI50: 0.085 µM
SN12C
  GI50: < 0.01 µM
DU-145
  GI50: < 0.01 µM
MDA-MB-435
  GI50: 0.02 µM

## COc1cc2c3c(n(CCCN4CCC(N)CC4)c(=O)c2cc1OC)-c1cc2c(cc1C3=O)OCO2
HOP-62
  GI50: 0.427 µM
HCT-116
  GI50: 0.12 µM
SF-539
  GI50: 0.1 µM
UACC-62
  GI50: 1.29 µM
OVCAR-3
  GI50: 0.832 µM
SN12C
  GI50: 0.257 µM
DU-145
  GI50: 0.182 µM
MDA-MB-435
  GI50: 1.74 µM

## COc1cc2c3c(n(CCCN4CCNCC4)c(=O)c2cc1OC)-c1cc2c(cc1C3=O)OCO2
HOP-62
  GI50: < 0.005 µM
HCT-116
  GI50: 0.575 µM
SF-539
  GI50: < 0.005 µM
UACC-62
  GI50: 1.2 µM
OVCAR-3
  GI50: 2.04 µM
SN12C
  GI50: 0.091 µM
DU-145
  GI50: 0.015 µM
MDA-MB-435
  GI50: 4.57 µM

## COc1cc2c3c(n(CCCn4cccn4)c(=O)c2cc1OC)-c1cc2c(cc1C3=O)OCO2
HOP-62
  GI50: 0.447 µM
HCT-116
  GI50: 1.99 µM
SF-539
  GI50: 0.398 µM
UACC-62
  GI50: 0.269 µM
OVCAR-3
  GI50: 56.2 µM
SN12C
  GI50: 0.316 µM
DU-145
  GI50: 0.363 µM
MDA-MB-435
  GI50: 7.08 µM

## COc1cc2c3c(n(CCCn4ccnc4)c(=O)c2cc1OC)-c1ccccc1C3=O
HOP-62
  GI50: < 0.01 µM
HCT-116
  GI50: < 0.01 µM
SF-539
  GI50: < 0.01 µM
UACC-62
  GI50: < 0.01 µM
OVCAR-3
  GI50: < 0.01 µM
SN12C
  GI50: < 0.01 µM
DU-145
  GI50: < 0.01 µM
MDA-MB-435
  GI50: 0.014 µM

## COc1cc2c3c(n(CCCN4CCCC(O)C4)c(=O)c2cc1OC)-c1cc2c(cc1C3=O)OCO2 (configuration not stated)
HOP-62
  GI50: < 0.005 µM
HCT-116
  GI50: < 0.005 µM
SF-539
  GI50: < 0.005 µM
UACC-62
  GI50: 5.01 µM
OVCAR-3
  GI50: 5.75 µM
SN12C
  GI50: 0.126 µM
DU-145
  GI50: < 0.005 µM
MDA-MB-435
  GI50: 0.977 µM

## O=C1c2ccccc2-c2c1c1ccc([N+](=O)[O-])cc1c(=O)n2CCCn1ccnc1
HOP-62
  GI50: 0.19 µM
HCT-116
  GI50: 0.274 µM
SF-539
  GI50: 0.016 µM
UACC-62
  GI50: 0.012 µM
OVCAR-3
  GI50: 0.864 µM
SN12C
  GI50: 0.015 µM
DU-145
  GI50: 0.017 µM
MDA-MB-435
  GI50: 2.17 µM

## COc1cc2c3c(n(CCCn4cncn4)c(=O)c2cc1OC)-c1cc2c(cc1C3=O)OCO2
HOP-62
  GI50: 0.079 µM
HCT-116
  GI50: 1.91 µM
SF-539
  GI50: 0.288 µM
UACC-62
  GI50: < 0.01 µM
OVCAR-3
  GI50: 61.7 µM
SN12C
  GI50: 0.085 µM
DU-145
  GI50: 0.085 µM
MDA-MB-435
  GI50: > 100 µM

## COc1cc2c3c(n(C)c(=O)c2cc1OC)-c1cc2c(cc1C3=O)OCO2
HOP-62
  GI50: 1.3 µM
HCT-116
  GI50: 35 µM
UACC-62
  GI50: 4.2 µM
SN12C
  GI50: 68 µM
DU-145
  GI50: 37 µM
MDA-MB-435
  GI50: 96 µM

## COc1cc2c3c(n(CCCN4CCOCC4)c(=O)c2cc1OC)-c1cc2c(cc1C3=O)OCO2 [INDOTECAN]
HOP-62
  GI50: 1.78 µM
HCT-116
  GI50: 1.15 µM
SF-539
  GI50: 0.04 µM
UACC-62
  GI50: 0.03 µM
OVCAR-3
  GI50: 74.1 µM
SN12C
  GI50: 0.813 µM
DU-145
  GI50: 0.155 µM
MDA-MB-435
  GI50: 67.6 µM
